# Laboratory results: patent US6479509B1, “Method of promoting smoking cessation” (priority 2000, dated 2002)
# Entries after “also recorded” stand apart in the source; their conditions may differ.
# Biological target: T1, Serotonin transporter (Rattus norvegicus, UniProt P31652)
# T1 construct: from tissue; host or cells: brain
# Test: not given
# Conditions: brain; read-out: Serotonin [3H]Paroxetine IC50; cited from earlier work
# T1 sequence (P31652 whole entry): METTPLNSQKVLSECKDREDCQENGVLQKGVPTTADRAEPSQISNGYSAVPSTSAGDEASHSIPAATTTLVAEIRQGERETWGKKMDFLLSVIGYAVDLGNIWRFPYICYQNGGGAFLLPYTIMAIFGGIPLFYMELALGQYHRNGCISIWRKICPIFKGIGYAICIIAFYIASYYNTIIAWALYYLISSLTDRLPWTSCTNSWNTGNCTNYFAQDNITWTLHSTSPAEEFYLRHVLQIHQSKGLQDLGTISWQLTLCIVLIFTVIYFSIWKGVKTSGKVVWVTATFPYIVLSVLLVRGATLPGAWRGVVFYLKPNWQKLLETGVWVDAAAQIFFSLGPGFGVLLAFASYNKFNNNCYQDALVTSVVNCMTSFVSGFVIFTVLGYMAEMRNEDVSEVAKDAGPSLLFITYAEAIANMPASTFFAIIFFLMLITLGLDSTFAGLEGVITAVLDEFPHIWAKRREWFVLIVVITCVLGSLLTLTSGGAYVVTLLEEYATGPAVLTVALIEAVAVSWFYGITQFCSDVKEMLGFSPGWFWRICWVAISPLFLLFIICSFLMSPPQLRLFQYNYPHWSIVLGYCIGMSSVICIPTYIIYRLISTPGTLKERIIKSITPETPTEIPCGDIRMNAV
row,Compound,IC50
1,COC(=O)C1C2CC[C@H](C[C@@H]1c1ccc(N)cc1)N2C (some centres unmarked) [RTI-29],5110 nM
2,COC(=O)[C@H]1[C@@H](c2ccc(Cl)cc2)C[C@H]2CC[C@H]1N2C [RTI-31],44.5 nM
3,COC(=O)[C@H]1[C@@H](c2ccc(Br)cc2)C[C@H]2CC[C@@H]1N2C [RTI-51],10.6 nM
4,COC(=O)[C@H]1C(c2ccc(I)cc2)C[C@@H]2CC[C@H]1N2C (some centres unmarked) [RTI-55],4.2 nM
5,CN1[C@H]2CC[C@@H]1[C@@H](C(=O)O)[C@@H](c1ccc(Cl)cc1)C2 [RTI-70],59500 nM
6,COC(=O)[C@H]1[C@@H](c2ccc(Cl)cc2)C[C@@H]2CC[C@H]1N2 [RTI-110],4.1 nM
7,COC(=O)[C@H]1[C@@H](c2ccc(Cl)c(Cl)c2)C[C@@H]2CC[C@H]1N2C [RTI-111],3.1 nM
8,COC(=O)[C@H]1[C@@H](c2ccc(Cl)c(C)c2)C[C@@H]2CC[C@H]1N2C [RTI-112],10.5 nM
9,CN1[C@H]2CC[C@@H]1[C@@H](C(=O)Oc1ccccc1)[C@@H](c1ccc(Cl)cc1)C2 [RTI-113],2340 nM
10,CC(C)OC(=O)[C@@H]1C2CC[C@H](C[C@@H]1c1ccc(Cl)cc1)N2C [RTI-114],1400 nM
11,Cc1ccc([C@H]2C[C@@H]3CC[C@H]([C@H]2C(=O)Oc2ccccc2)N3C)cc1 [RTI-120],24500 nM
12,CN1C2CCC1C(C(=O)N1CCCC1)C(c1ccc(Cl)cc1)C2 (centres unmarked) [RTI-147],12400 nM

# Same assay, conditions: read-out: Serotonin [3H]Paroxetine IC50; brain; cited from earlier work
row,Compound,IC50
1,CN1C2CCC1C(C(=O)N1CCCC1)C(c1ccc(I)cc1)C2 (centres unmarked) [RTI-229],1790 nM

# Biological target: T2, Dopamine transporter (Rattus norvegicus, UniProt P23977)
# T2 construct: from tissue; host or cells: brain
# T2 sequence (P23977 whole entry): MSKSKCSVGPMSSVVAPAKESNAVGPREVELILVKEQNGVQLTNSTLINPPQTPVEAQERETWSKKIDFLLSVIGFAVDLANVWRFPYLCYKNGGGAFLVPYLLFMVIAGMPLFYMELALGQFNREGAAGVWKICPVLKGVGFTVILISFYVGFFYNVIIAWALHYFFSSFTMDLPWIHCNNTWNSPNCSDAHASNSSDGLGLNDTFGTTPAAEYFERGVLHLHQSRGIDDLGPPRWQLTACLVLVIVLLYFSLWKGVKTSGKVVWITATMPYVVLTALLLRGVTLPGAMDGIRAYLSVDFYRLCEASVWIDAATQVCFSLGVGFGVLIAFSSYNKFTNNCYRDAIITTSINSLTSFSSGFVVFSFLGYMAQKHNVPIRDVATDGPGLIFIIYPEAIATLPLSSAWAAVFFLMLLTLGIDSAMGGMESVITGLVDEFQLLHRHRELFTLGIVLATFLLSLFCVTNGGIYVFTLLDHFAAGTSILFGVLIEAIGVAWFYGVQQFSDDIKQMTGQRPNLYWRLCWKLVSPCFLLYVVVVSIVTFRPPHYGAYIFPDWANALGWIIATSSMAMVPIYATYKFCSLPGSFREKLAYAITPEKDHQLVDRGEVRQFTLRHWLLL
# Test: not given
# Conditions: brain; read-out: Dopamine [3H]WIN 35,428 IC50; cited from earlier work
row,Compound,IC50
1,COC(=O)C1C2CC[C@H](C[C@@H]1c1ccc(N)cc1)N2C (some centres unmarked) [RTI-29],9.8 nM
2,COC(=O)[C@H]1[C@@H](c2ccc(C)cc2)C[C@@H]2CC[C@H]1N2C [RTI-32],1.7 nM
3,COC(=O)[C@H]1[C@@H](c2ccc(Br)cc2)C[C@H]2CC[C@@H]1N2C [RTI-51],1.69 nM
4,COC(=O)[C@H]1C(c2ccc(I)cc2)C[C@@H]2CC[C@H]1N2C (some centres unmarked) [RTI-55],1.26 nM
5,CN1[C@H]2CC[C@@H]1[C@@H](C(=O)O)[C@@H](c1ccc(Cl)cc1)C2 [RTI-70],2070 nM
6,COC(=O)[C@H]1[C@@H](c2ccc(Cl)cc2)C[C@@H]2CC[C@H]1N2 [RTI-110],0.62 nM
7,COC(=O)[C@H]1[C@@H](c2ccc(Cl)c(Cl)c2)C[C@@H]2CC[C@H]1N2C [RTI-111],0.79 nM
8,COC(=O)[C@H]1[C@@H](c2ccc(Cl)c(C)c2)C[C@@H]2CC[C@H]1N2C [RTI-112],0.8 nM
9,CN1[C@H]2CC[C@@H]1[C@@H](C(=O)Oc1ccccc1)[C@@H](c1ccc(Cl)cc1)C2 [RTI-113],1.98 nM
10,CC(C)OC(=O)[C@@H]1C2CC[C@H](C[C@@H]1c1ccc(Cl)cc1)N2C [RTI-114],1.4 nM
11,Cc1ccc([C@H]2C[C@@H]3CC[C@H]([C@H]2C(=O)Oc2ccccc2)N3C)cc1 [RTI-120],3.26 nM
12,"COC(=O)[C@H]1[C@@H](c2ccccc2)C[C@@H]2CC[C@H]1N2C [WIN 35,065-2, reference compound]",23 nM

# Same assay, conditions: read-out: Dopamine [3H]WIN 35,428 IC50; brain; cited from earlier work
row,Compound,IC50
1,CN1C2CCC1C(C(=O)N1CCCC1)C(c1ccc(Cl)cc1)C2 (centres unmarked) [RTI-147],1.38 nM
2,CN1C2CCC1C(C(=O)N1CCCC1)C(c1ccc(I)cc1)C2 (centres unmarked) [RTI-229],0.37 nM

# Tested on: nicotine-induced hypothermia
# Test: Blockade of nicotine-induced hypothermia (body temperature)
# Format: in vivo, mice
# Conditions: @ 90 μmol/hg
# Protocol: Body Temperature. Rectal temperature was measured by a thermistor probe (inserted 24 mm) and digital thermometer (Yellow Springs Instrument Co., Yellow Springs, Ohio). Readings were taken just before and at 30 min after the s.c. injection of nicotine. For antagonism studies, mice were pretreated with either saline or various drugs 10 min before nicotine. The difference in rectal temperature before and after treatment was calculated for each mouse. The ambient temperature of the laboratory varied from 21 to 24° C. from day to day.
# (§1) Data were analyzed statistically by an analysis of variance followed by the Fisher's P least-significant difference multiple comparison test. The null hypothesis was rejected at the […].
row,Compound,"Hypothermia, % blockade @ dose"
1,CN1[C@H]2CC[C@@H]1[C@@H](C(=O)O)[C@@H](c1ccc(Cl)cc1)C2 [RTI-70],40% @ 90

# Same assay, conditions: blocking nicotine-induced hypothermia, mice, systemic administration
row,Compound,AD50 Hypothermia
1,COC(=O)[C@H]1[C@@H](c2ccc(Cl)cc2)C[C@H]2CC[C@H]1N2C [RTI-31],1.1 μmol/hg
2,COC(=O)[C@H]1[C@@H](c2ccc(C)cc2)C[C@@H]2CC[C@H]1N2C [RTI-32],31.7 μmol/hg
3,COC(=O)[C@H]1C(c2ccc(I)cc2)C[C@@H]2CC[C@H]1N2C (some centres unmarked) [RTI-55],1.2 μmol/hg
4,COC(=O)[C@H]1[C@@H](c2ccc(Cl)c(C)c2)C[C@@H]2CC[C@H]1N2C [RTI-112],1.5 μmol/hg
5,CC(C)OC(=O)[C@@H]1C2CC[C@H](C[C@@H]1c1ccc(Cl)cc1)N2C [RTI-114],9 μmol/hg
6,"COC(=O)[C@H]1[C@@H](c2ccccc2)C[C@@H]2CC[C@H]1N2C [WIN 35,065-2, reference compound]",6.7 μmol/hg

# Same assay, conditions: mice
Compound,"AD50, blockade of nicotine-induced hypothermia",Blockade of nicotine-induced hypothermia (in words)
COC(=O)[C@H]1[C@@H](c2ccc(Cl)cc2)C[C@H]2CC[C@H]1N2C [RTI-31],1.1 µmol/kg,significantly blocked
COC(=O)[C@H]1[C@@H](c2ccc(C)cc2)C[C@@H]2CC[C@H]1N2C [RTI-32],–,significantly blocked
COC(=O)[C@H]1C(c2ccc(I)cc2)C[C@@H]2CC[C@H]1N2C (some centres unmarked) [RTI-55],–,significantly blocked
COC(=O)[C@H]1[C@@H](c2ccc(Cl)c(C)c2)C[C@@H]2CC[C@H]1N2C [RTI-112],–,significantly blocked
"COC(=O)[C@H]1[C@@H](c2ccccc2)C[C@@H]2CC[C@H]1N2C [WIN 35,065-2, reference compound]",–,significantly blocked

# Tested on: nicotine-induced antinociception
# Test: Blockade of nicotine-induced antinociception, tail-flick test
# Format: in vivo, mice
# Conditions: @ 90 μmol/hg
# Protocol: Anitinociception. The tail-flick method of D'Amour and Smith (1941) as modified by Dewey et al. (1970) was used. A control response (2-4 s) was determined for each animal before treatment, and a test latency was determined after drug administration. To minimize tissue damage, a maximum latency of 10 s was imposed. Antinociceptive response was calculated as percent maximum possible effect (% MPE), where % MPE=[((test-control)/(10-control))×100], Groups of 8 to 12 animals were used for each dose and for each treatment. Mice were tested 5 min after nicotine administration for the dose-response evaluation. Antagonism studies were carried out by pretreating the mice s.c. with either saline or various drugs at different times before nicotine. The animals were tested 5 min after administration of nicotine.
# as §1
row,Compound,"Tail-flick, % blockade @ dose"
1,CN1[C@H]2CC[C@@H]1[C@@H](C(=O)O)[C@@H](c1ccc(Cl)cc1)C2 [RTI-70],0% @ 90

# Same assay, conditions: blocking antinociception of nicotine 2.5 mg/kg, mice, systemic administration
row,Compound,AD50 Tail-Flick
1,COC(=O)C1C2CC[C@H](C[C@@H]1c1ccc(N)cc1)N2C (some centres unmarked) [RTI-29],6.8 μmol/hg
2,COC(=O)[C@H]1[C@@H](c2ccc(Cl)cc2)C[C@H]2CC[C@H]1N2C [RTI-31],7.2 μmol/hg
3,COC(=O)[C@H]1[C@@H](c2ccc(C)cc2)C[C@@H]2CC[C@H]1N2C [RTI-32],2.0 μmol/hg
4,COC(=O)[C@H]1[C@@H](c2ccc(Br)cc2)C[C@H]2CC[C@@H]1N2C [RTI-51],1.0 μmol/hg
5,COC(=O)[C@H]1C(c2ccc(I)cc2)C[C@@H]2CC[C@H]1N2C (some centres unmarked) [RTI-55],0.9 μmol/hg
6,COC(=O)[C@H]1[C@@H](c2ccc(Cl)cc2)C[C@@H]2CC[C@H]1N2 [RTI-110],1.0 μmol/hg
7,COC(=O)[C@H]1[C@@H](c2ccc(Cl)c(Cl)c2)C[C@@H]2CC[C@H]1N2C [RTI-111],1.3 μmol/hg
8,COC(=O)[C@H]1[C@@H](c2ccc(Cl)c(C)c2)C[C@@H]2CC[C@H]1N2C [RTI-112],3.5 μmol/hg
9,CN1[C@H]2CC[C@@H]1[C@@H](C(=O)Oc1ccccc1)[C@@H](c1ccc(Cl)cc1)C2 [RTI-113],5.6 μmol/hg
10,CC(C)OC(=O)[C@@H]1C2CC[C@H](C[C@@H]1c1ccc(Cl)cc1)N2C [RTI-114],5.3 μmol/hg
11,Cc1ccc([C@H]2C[C@@H]3CC[C@H]([C@H]2C(=O)Oc2ccccc2)N3C)cc1 [RTI-120],4.0 μmol/hg
12,CN1C2CCC1C(C(=O)N1CCCC1)C(c1ccc(Cl)cc1)C2 (centres unmarked) [RTI-147],5.7 μmol/hg
13,CN1C2CCC1C(C(=O)N1CCCC1)C(c1ccc(I)cc1)C2 (centres unmarked) [RTI-229],3.6 μmol/hg
14,"COC(=O)[C@H]1[C@@H](c2ccccc2)C[C@@H]2CC[C@H]1N2C [WIN 35,065-2, reference compound]",8.0 μmol/hg

# Same assay, conditions: tail-flick, mice
Compound,"Relative potency in blocking nicotine's antinociceptive effect (in words, comparator in the value)",Fold more potent than cocaine in blocking nicotine's antinociceptive effect,Times less potent than cocaine in blocking nicotine's antinociceptive effect
COC(=O)C1C2CC[C@H](C[C@@H]1c1ccc(N)cc1)N2C (some centres unmarked) [RTI-29],"one-half as potent as cocaine; also recorded: approximately the same activity as WIN 35,065-2",–,–
CN1[C@H]2CC[C@@H]1[C@@H](C(=O)O)[C@@H](c1ccc(Cl)cc1)C2 [RTI-70],much less potent than cocaine,–,–
COC(=O)[C@H]1[C@@H](c2ccc(Cl)cc2)C[C@@H]2CC[C@H]1N2 [RTI-110],–,3 fold,–
COC(=O)[C@H]1[C@@H](c2ccc(Cl)c(Cl)c2)C[C@@H]2CC[C@H]1N2C [RTI-111],–,~2.5 fold,–
COC(=O)[C@H]1[C@@H](c2ccc(Cl)c(C)c2)C[C@@H]2CC[C@H]1N2C [RTI-112],"approximately the same activity as cocaine; also recorded: approximately twice as potent as WIN 35,065-2",–,–
Cc1ccc([C@H]2C[C@@H]3CC[C@H]([C@H]2C(=O)Oc2ccccc2)N3C)cc1 [RTI-120],only one-half as potent as RTI-32,–,–
CN1C2CCC1C(C(=O)N1CCCC1)C(c1ccc(Cl)cc1)C2 (centres unmarked) [RTI-147],about one-half as potent as cocaine,–,–
CN1C2CCC1C(C(=O)N1CCCC1)C(c1ccc(I)cc1)C2 (centres unmarked) [RTI-229],about the same potency as cocaine,–,–
"COC(=O)[C@H]1[C@@H](c2ccccc2)C[C@@H]2CC[C@H]1N2C [WIN 35,065-2, reference compound]",–,–,2.5 times

# Biological target: T3, Norepinephrine transporter (Rattus norvegicus, UniProt Q63380)
# T3 construct: from tissue; host or cells: brain
# T3 sequence (Q63380 1-617): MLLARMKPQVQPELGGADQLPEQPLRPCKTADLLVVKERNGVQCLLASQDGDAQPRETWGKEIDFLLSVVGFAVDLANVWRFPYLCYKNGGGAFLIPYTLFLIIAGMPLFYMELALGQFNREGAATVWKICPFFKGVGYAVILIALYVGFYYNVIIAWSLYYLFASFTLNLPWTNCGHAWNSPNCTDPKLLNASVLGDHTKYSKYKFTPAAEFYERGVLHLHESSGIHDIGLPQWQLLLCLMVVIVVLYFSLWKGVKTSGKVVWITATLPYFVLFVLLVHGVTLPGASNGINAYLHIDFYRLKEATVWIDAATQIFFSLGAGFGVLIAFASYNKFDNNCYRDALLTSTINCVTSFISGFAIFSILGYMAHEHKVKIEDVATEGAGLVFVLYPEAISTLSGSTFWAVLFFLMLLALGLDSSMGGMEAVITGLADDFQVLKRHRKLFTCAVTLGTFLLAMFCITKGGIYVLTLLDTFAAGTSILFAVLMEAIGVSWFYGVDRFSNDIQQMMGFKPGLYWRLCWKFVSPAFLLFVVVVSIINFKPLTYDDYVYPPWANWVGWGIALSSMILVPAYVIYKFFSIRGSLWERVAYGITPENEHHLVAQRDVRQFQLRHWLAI
# Test: not given
# Conditions: brain; read-out: Norepinephrine [3H]Nisoxetime IC50; cited from earlier work
row,Compound,IC50
1,COC(=O)C1C2CC[C@H](C[C@@H]1c1ccc(N)cc1)N2C (some centres unmarked) [RTI-29],151 nM
2,COC(=O)[C@H]1[C@@H](c2ccc(C)cc2)C[C@@H]2CC[C@H]1N2C [RTI-32],60 nM
3,COC(=O)[C@H]1C(c2ccc(I)cc2)C[C@@H]2CC[C@H]1N2C (some centres unmarked) [RTI-55],63 nM
4,CN1[C@H]2CC[C@@H]1[C@@H](C(=O)O)[C@@H](c1ccc(Cl)cc1)C2 [RTI-70],> 200000 nM
5,COC(=O)[C@H]1[C@@H](c2ccc(Cl)cc2)C[C@@H]2CC[C@H]1N2 [RTI-110],5.45 nM
6,COC(=O)[C@H]1[C@@H](c2ccc(Cl)c(Cl)c2)C[C@@H]2CC[C@H]1N2C [RTI-111],17.9 nM
7,COC(=O)[C@H]1[C@@H](c2ccc(Cl)c(C)c2)C[C@@H]2CC[C@H]1N2C [RTI-112],36.2 nM
8,CN1[C@H]2CC[C@@H]1[C@@H](C(=O)Oc1ccccc1)[C@@H](c1ccc(Cl)cc1)C2 [RTI-113],2930 nM
9,CC(C)OC(=O)[C@@H]1C2CC[C@H](C[C@@H]1c1ccc(Cl)cc1)N2C [RTI-114],778 nM
10,Cc1ccc([C@H]2C[C@@H]3CC[C@H]([C@H]2C(=O)Oc2ccccc2)N3C)cc1 [RTI-120],5830 nM
11,"COC(=O)[C@H]1[C@@H](c2ccccc2)C[C@@H]2CC[C@H]1N2C [WIN 35,065-2, reference compound]",920 nM

# Same assay, conditions: read-out: Norepinephrine [3H]Nisoxetime IC50; brain; cited from earlier work
row,Compound,IC50
1,CN1C2CCC1C(C(=O)N1CCCC1)C(c1ccc(Cl)cc1)C2 (centres unmarked) [RTI-147],3950 nM
2,CN1C2CCC1C(C(=O)N1CCCC1)C(c1ccc(I)cc1)C2 (centres unmarked) [RTI-229],990 nM
